In brackets after ≈: the same amount, converted by molar mass.
How the values were obtained:
[1] = Observation of treated animals across the inflammation models; type: in vivo, mouse; settings: parenteral, oral, topical application
[2] = system: C57BL6 mice fed dextran sulfate sodium (DSS); assay: DSS-induced colitis model; type: in vivo, mouse; settings: 100 µg i.p. daily
LOX-1 = assay: Purified enzyme activity assay, LOX-1; settings: 10 µM, purified protein
LPS-treated PBMC = assay: Cytokine array of LPS-treated PBMC; type: cell-based, human; settings: 10 µg/ml, LPS 2 µg/ml, 16 h
bacterial growth = assay: Kirby Bauer testing of bacterial growth; settings: data not shown
TRAF 1–6 in MLE cells = assay: TRAF protein half-life; settings: different concentrations, 16 h
SCF^Fbxo3 = SCF^Fbxo3 (Homo sapiens, UniProt Q9UK99); assay: In vitro ubiquitin conjugation assay of Fbxl2; type: biochemical
COX-2 [3] = target: T1, COX-2 (Homo sapiens, UniProt P35354); assay: Purified enzyme activity assay, COX-2; settings: 10 µM, purified protein
T1 sequence (P35354 18-604): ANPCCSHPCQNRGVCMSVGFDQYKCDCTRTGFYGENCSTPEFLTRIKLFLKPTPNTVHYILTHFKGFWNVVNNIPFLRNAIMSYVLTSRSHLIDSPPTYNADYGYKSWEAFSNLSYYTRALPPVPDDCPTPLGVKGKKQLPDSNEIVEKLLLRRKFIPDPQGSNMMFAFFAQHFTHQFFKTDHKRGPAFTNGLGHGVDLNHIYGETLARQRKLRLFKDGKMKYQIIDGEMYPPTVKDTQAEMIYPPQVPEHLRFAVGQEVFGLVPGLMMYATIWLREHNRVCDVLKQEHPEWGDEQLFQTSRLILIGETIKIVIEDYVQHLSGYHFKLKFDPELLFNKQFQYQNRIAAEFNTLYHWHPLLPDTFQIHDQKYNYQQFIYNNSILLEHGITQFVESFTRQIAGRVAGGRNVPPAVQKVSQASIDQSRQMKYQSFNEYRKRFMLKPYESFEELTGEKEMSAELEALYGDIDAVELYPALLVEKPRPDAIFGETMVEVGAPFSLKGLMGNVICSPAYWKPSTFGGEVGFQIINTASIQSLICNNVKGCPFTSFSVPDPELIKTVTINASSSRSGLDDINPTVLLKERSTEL

COX-2 [4] = target: T2, COX-2 (Mus musculus, UniProt Q05769); assay: COX-2 activity and COX-2 levels in MLE cells; type: cell-based, murine; settings: 16 h
T2 sequence (Q05769 18-604): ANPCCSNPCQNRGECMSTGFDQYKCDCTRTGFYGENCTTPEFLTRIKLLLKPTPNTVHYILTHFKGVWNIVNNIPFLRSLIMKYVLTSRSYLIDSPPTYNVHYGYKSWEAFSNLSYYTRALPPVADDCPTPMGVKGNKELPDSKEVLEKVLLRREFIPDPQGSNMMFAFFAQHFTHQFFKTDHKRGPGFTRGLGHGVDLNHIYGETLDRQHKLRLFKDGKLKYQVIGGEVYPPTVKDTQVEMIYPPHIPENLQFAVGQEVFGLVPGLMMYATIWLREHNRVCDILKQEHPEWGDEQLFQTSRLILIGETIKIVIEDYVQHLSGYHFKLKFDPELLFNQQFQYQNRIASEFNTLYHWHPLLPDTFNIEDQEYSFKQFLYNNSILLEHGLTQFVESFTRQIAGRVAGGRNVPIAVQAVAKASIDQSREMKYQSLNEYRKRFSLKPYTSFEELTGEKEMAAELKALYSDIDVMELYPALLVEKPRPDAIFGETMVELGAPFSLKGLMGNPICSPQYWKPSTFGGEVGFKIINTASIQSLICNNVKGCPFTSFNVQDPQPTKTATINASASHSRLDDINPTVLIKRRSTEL

Fbxo3 [5] = target: T3, Fbxo3 (Homo sapiens, UniProt Q9UK99); assay: Fbxo3/Fbxl2 protein interaction pull-down assay; type: binding; settings: Fbxo3 beads from Hela cell lysates, 10^−11 to 10^−4 M tested
T3 sequence (Q9UK99 1-471): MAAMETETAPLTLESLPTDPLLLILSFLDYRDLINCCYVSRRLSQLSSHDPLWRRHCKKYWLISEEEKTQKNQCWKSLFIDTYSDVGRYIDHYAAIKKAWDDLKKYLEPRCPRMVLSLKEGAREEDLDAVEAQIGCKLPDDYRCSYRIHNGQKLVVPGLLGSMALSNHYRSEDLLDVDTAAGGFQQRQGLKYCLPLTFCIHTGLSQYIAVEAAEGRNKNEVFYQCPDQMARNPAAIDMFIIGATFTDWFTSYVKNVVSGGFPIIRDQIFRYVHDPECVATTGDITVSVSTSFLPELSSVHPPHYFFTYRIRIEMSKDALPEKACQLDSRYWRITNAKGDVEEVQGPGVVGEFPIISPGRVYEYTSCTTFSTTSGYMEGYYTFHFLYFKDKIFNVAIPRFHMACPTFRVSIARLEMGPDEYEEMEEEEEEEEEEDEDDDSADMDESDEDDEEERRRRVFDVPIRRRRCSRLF

COX-1 = COX-1 (Homo sapiens, UniProt P23219); assay: Purified enzyme activity assay, COX-1; settings: 10 µM, purified protein
[6] = system: C57BL6 mice given TPA on ears; assay: TPA-induced ear edema model; type: in vivo, mouse; settings: topical 8, 40, 200 ug/ear, 18 h after TPA, versus vehicle
[7] = system: carrageenan-treated C57BL6 mice; assay: Carrageenan paw edema model; type: in vivo, mouse; settings: 100 µg i.p. daily, 48 h, versus vehicle
[8] = system: Murine lung epithelial (MLE) cells; assay: Immunoblotting of Fbxl2, TRAFs and Fbxl2 substrates in MLE cells
Fbxo3 [9] = target: T3, Fbxo3; assay: Reversibility of Fbxo3 inhibition by ultrafiltration and Fbxl2 pull-down; settings: 1 mg/ml, one or three rounds of ultrafiltration (3 kDa cutoff)
[10] = system: C57BL6 mice challenged with H1N1 (A/PR/8/34); assay: H1N1 influenza pneumonia model; type: in vivo, mouse; settings: 30 µg/ml in drinking water
[11] = system: Human peripheral blood mononuclear (PBMC) cells; assay: LPS-stimulated cytokine release from PBMC; type: cell-based; settings: 16 h

SCF^Fbxo3, sequence (Q13616 whole entry partner, one chain of several): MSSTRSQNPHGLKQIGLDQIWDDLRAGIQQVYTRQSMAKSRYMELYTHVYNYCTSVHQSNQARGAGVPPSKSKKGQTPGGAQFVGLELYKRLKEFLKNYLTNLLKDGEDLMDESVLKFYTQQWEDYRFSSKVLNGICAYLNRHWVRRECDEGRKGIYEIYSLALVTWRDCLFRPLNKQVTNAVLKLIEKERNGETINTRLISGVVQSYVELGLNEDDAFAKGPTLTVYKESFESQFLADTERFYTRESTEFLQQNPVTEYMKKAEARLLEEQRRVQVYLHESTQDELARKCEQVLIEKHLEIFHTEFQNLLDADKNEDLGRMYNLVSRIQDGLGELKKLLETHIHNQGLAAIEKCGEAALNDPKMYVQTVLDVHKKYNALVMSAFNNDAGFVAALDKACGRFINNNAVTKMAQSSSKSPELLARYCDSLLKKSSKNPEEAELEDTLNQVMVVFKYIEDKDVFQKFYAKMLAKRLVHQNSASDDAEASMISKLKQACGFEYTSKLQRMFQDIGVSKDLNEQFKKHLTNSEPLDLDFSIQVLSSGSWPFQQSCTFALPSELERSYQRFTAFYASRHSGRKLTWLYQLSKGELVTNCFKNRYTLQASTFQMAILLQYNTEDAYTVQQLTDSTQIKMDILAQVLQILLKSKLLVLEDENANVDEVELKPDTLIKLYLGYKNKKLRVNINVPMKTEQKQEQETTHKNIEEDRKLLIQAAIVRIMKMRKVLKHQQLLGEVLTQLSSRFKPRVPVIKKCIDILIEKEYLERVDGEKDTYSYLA
SCF^Fbxo3, sequence (P63208 whole entry partner, one chain of several): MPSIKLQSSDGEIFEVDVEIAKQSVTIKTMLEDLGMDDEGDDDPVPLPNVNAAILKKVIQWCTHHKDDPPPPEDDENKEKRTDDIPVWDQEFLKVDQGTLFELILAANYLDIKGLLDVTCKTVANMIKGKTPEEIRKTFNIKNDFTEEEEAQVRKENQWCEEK
SCF^Fbxo3, sequence (P62877 whole entry partner, one chain of several): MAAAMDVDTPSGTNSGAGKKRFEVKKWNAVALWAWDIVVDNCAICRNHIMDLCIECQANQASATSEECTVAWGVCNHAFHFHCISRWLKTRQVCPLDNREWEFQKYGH
COX-1, sequence (P23219 24-599): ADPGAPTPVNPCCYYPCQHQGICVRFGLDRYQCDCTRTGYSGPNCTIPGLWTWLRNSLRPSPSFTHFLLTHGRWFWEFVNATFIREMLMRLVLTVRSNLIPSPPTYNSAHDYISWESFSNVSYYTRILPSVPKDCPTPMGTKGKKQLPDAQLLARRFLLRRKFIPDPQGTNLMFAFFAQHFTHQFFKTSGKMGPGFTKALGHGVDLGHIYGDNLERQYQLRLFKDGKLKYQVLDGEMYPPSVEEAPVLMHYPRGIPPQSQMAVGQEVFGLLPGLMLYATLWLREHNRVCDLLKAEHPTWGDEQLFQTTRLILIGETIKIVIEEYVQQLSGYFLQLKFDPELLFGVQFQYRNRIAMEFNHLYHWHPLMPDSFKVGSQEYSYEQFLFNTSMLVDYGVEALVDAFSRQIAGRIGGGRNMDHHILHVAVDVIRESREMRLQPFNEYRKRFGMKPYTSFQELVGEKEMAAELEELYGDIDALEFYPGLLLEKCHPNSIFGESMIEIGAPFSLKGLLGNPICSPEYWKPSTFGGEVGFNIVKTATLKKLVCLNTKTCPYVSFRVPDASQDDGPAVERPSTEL

c1ccc(-c2ccc(CNCCNCc3ccc(-c4ccccn4)cc3)cc2)nc1 [BC-1215]
overt signs of distress in treated animals [1]: not observed to exhibit overt signs of distress
colon length ([2]; 3.5% DSS five days, compared to control): no significant decrease in colon length
TRAF protein levels in colon tissue ([2]; immunoblotting): significant reduction of immunoreactive TRAF2 and TRAF4 content
IL1β level in colonic tissue ([2]; versus vehicle): large reduction
TNFα level in colonic tissue ([2]; versus vehicle): large reduction
colon histology (H&E and Alcian staining) ([2]; versus vehicle): significant restoration of colonic crypts with reappearance of goblet cells
inhibition of LOX-1 enzymatic activity (LOX-1): does not cause significant inhibitory effects
release of Th1 panel cytokines (LPS-treated PBMC): remarkably suppressed the majority of the Th1 panel cytokines
inhibition of bacterial growth (bacterial growth): modest inhibition of bacterial growth
TRAF steady-state mRNA levels (TRAF 1–6 in MLE cells): without altering TRAF steady-state mRNA levels
IC50 (SCF^Fbxo3): 100 nM
inhibition of COX-2 enzymatic activity (COX-2 [3]): does not cause significant inhibitory effects
COX-2 activity in cells (COX-2 [4]; 10 µg/ml, positive control DuP-697): did not alter COX-2 activity
immunoreactive COX-2 levels (COX-2 [4]; different concentrations, immunoblotting): did not alter immunoreactive COX-2 levels
concentration of maximal inhibitory binding (Fbxl2 pull-down by Fbxo3 beads) (Fbxo3 [5]): 10^−7 M
inhibition of COX-1 enzymatic activity (COX-1): does not cause significant inhibitory effects
ear thickness [6]: significantly reduced
ear weight (punch biopsy) [6]: significantly reduced
paw edema (volume) [7]: significantly reduce
paw thickness [7]: significantly reduce
TNFα-induced TRAF2/TRAF3 up-regulation and p38, p-IKK activation ([8]; MLE cells co-treated with TNFα 10 ng/ml, 6 h): suppress such effects in a dose-dependent manner
levels of Fbxl2 substrates cyclin D2, cyclin D3 and CCT ([8]; MLE cells, 16 h, immunoblotting): reduced
immunoreactive Fbxl2 and TRAF protein levels ([8]; cells, range of concentrations, compared to benzathine control): increased immunoreactive Fbxl2 levels and reduced TRAF proteins
reversibility of Fbxo3 inhibition (Fbxo3 [9]): reversible
lavage cell counts [10]: remarkably decreased
lavage protein concentration [10]: remarkably decreased
lung compliance ([10]; day 5, FlexiVent): increased compliance
lung elastance ([10]; day 5, FlexiVent): reduced elastance
pulmonary edema, hemorrhage and alveolar inflammation ([10]; gross images and H&E): lessened severity
survival ([10]; up to 9 d, versus diluent): significantly increased survival
IC50 ([11]; Homo sapiens, read-out: IC50 for IL-1β): 0.9 µg/mL (≈ 2.28 µM)

c1ccc(CNCCNCc2ccccc2)cc1 [benzathine, reference compound]
IC50 for IL-1β ([11]; LPS 2 µg/ml, ELISA): 25 µg/mL

From publication PMC3845358 (Journal of immunology (Baltimore, Md. : 1950), 2013)
